Test results taken from patent publication US12486267B2, “Imidazo[1,2-A]pyridine and [1,2,4]triazolo[1,5-A]pyridine derivatives as TLR9 inhibitors for the treatment of fibrosis” (BRISTOL-MYERS SQUIBB COMPANY, priority 2020, dated 2025).

Columns and labels:
Type in all cases: cell-based
human TLR9 = molecular target: T1, human TLR9 (Homo sapiens, UniProt Q9NR96); test: TLR9 inhibition reporter assay (HEK-Blue cells, SEAP reporter); conditions: HEK-Blue cells overexpressing human TLR9; stimulated with ODN2006 5 nM; 22 hour incubation; SEAP readout
T1 sequence (Q9NR96 26-1032): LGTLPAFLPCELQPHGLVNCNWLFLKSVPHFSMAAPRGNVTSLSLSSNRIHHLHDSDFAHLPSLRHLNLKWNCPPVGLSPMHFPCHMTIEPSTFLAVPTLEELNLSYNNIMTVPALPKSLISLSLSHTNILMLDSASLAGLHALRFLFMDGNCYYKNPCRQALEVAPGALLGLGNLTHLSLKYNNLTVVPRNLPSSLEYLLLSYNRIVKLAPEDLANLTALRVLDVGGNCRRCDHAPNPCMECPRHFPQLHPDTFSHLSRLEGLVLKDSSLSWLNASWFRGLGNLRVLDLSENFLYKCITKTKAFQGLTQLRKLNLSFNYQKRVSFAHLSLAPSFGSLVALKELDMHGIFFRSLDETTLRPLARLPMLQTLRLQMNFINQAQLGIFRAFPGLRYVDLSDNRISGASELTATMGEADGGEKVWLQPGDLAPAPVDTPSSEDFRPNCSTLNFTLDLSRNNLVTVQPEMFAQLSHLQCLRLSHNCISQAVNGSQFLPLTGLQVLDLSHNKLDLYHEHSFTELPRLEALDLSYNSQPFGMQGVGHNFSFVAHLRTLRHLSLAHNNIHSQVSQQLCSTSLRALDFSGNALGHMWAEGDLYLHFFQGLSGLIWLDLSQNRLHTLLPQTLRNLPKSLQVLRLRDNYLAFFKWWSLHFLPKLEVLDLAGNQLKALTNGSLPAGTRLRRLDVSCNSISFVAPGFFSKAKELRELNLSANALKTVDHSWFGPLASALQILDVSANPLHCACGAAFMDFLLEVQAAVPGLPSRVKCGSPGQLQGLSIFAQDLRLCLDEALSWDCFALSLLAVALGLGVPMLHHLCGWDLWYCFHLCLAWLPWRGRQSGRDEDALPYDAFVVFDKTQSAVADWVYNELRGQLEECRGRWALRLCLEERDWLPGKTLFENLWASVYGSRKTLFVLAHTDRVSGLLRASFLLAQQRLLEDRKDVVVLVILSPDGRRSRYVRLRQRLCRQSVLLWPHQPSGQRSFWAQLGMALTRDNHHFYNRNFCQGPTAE
Outline: (§1)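 HEK-Blue cells with NF-κB/AP-1-driven SEAP pre-treated 30 min with compound (0.05 nM–50 μM), then stimulated with gardiquimod 7.5 μM (TLR7), R848 15.9 μM (TLR8) or ODN2006 5 nM (TLR9). SEAP detected after 22 h at 37 °C; percent inhibition relative to agonist-plus-DMSO and known-inhibitor wells.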

human TLR7 = molecular target: T2, human TLR7 (Homo sapiens, UniProt Q9NYK1); test: TLR7 inhibition reporter assay (HEK-Blue cells, SEAP reporter); conditions: HEK-Blue cells overexpressing human TLR7; stimulated with gardiquimod 7.5 μM; 22 hour incubation; SEAP readout
T2 sequence (Q9NYK1 27-1049): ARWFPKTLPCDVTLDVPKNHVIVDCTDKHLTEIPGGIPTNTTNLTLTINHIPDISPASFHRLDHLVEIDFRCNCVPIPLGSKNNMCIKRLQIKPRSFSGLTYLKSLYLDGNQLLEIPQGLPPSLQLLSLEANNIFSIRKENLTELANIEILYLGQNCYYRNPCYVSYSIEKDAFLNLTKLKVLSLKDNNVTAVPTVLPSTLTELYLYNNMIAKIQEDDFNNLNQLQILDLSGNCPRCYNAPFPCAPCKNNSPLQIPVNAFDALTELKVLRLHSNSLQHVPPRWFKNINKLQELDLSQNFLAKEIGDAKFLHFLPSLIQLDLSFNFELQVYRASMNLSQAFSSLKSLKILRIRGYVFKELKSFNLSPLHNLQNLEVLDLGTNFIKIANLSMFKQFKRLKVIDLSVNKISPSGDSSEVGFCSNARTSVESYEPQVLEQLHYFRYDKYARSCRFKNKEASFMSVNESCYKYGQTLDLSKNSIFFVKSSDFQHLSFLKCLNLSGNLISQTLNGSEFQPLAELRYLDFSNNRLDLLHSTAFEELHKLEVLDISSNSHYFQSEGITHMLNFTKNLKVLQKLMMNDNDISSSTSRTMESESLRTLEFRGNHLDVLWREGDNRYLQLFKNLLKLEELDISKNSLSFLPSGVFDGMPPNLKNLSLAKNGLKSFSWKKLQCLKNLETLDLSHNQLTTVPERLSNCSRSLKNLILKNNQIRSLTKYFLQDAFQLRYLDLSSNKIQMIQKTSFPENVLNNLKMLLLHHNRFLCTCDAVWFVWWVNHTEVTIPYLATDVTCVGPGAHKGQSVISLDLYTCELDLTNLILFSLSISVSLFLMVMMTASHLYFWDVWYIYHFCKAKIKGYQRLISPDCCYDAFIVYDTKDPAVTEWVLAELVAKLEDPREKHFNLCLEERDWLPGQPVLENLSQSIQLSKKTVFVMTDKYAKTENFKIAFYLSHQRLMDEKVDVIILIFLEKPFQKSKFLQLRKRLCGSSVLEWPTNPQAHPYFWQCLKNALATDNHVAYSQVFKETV
Outline: as §1

human TLR8 = molecular target: T3, human TLR8 (Homo sapiens, UniProt Q9NR97); test: TLR8 inhibition reporter assay (HEK-Blue cells, SEAP reporter); conditions: HEK-Blue cells overexpressing human TLR8; stimulated with R848 15.9 μM; 22 hour incubation; SEAP readout
T3 sequence (Q9NR97 27-1041): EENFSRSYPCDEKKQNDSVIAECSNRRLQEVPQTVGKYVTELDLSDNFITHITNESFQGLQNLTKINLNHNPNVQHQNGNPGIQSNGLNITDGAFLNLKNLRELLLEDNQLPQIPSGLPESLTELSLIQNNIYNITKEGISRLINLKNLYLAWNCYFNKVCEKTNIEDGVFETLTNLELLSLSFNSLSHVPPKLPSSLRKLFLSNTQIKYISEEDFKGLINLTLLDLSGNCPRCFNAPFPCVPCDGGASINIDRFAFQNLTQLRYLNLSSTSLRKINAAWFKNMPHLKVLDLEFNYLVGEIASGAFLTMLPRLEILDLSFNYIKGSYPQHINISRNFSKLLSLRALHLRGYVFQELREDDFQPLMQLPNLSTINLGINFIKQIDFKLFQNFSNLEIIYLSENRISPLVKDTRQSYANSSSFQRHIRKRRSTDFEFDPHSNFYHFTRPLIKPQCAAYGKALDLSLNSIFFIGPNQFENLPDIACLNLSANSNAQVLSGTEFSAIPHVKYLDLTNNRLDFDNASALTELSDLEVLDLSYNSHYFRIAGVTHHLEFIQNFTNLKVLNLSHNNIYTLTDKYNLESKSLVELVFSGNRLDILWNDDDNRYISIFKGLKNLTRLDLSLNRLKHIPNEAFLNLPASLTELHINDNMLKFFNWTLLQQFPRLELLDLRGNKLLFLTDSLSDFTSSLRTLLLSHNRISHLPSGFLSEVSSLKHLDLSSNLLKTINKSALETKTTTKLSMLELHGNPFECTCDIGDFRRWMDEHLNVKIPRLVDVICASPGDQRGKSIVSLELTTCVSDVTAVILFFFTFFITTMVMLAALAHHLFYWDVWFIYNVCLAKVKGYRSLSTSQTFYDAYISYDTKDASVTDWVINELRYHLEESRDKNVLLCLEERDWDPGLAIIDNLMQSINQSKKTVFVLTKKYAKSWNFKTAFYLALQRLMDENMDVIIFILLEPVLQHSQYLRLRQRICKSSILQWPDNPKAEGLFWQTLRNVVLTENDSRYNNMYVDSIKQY
Outline: as §1

Row | IC50 (human TLR9) | IC50 (human TLR7) | IC50 (human TLR8) | SMILES
1 | 42 nM | 13000 nM | > 50000 nM | COc1ccc(-c2cn3c(n2)CCC(C2CCN(C4CCN(C(C)C)CC4)CC2)C3)cc1OC (single isomer, unassigned) [Example 35, 2-(3,4-dimethoxyphenyl)-6-(1′-isopropyl-[1,4′-bipiperidin]-4-yl)-5,6,7,8-tetrahydroimidazo[1,2-a]pyridine]
2 | 314 nM | 45000 nM | > 50000 nM | COc1ccc(-c2cn3c(n2)CCC(C2CCN(C4CCN(C(=O)C5CC5)CC4)CC2)C3)cc1OC (single isomer, unassigned) [Example 44, cyclopropyl(4-(2-(3,4-dimethoxyphenyl)-5,6,7,8-tetrahydroimidazo[1,2-a]pyridin-6-yl)-[1,4′-bipiperidin]-1′-yl)methanone]

Row | SMILES | IC50 (human TLR9) | IC50 (human TLR7) | IC50 (human TLR8)
3 | COc1ccc(-c2cn3cc(C4C[C@H]5CC[C@@H](C4)N5C4CCN(C(C)C)CC4)cc(C)c3n2)cc1OC (mixture of isomers) [Example 30, 2-(3,4-dimethoxyphenyl)-6-(8-(1-isopropylpiperidin-4-yl)-8-azabicyclo[3.2.1]octan-3-yl)-8-methylimidazo[1,2-a]pyridine] | 37 nM | 1400 nM | > 50000 nM
